From patent US20210015884A1 (priority 2018, published 2021)

Columns and labels:
[1] = test system: m^6A methylation in viral RNA; assay type: cell-based, influenza A virus
IVA/PC virus [2] = assay type: cell-based, influenza A virus
IVA/PC virus [3] = assay: microbe, parasite or virus in culture; assay type: cell-based; conditions: Influenza A virus, MDCK, read-out: IC50 of Zanamivir

Compound: 5′ GGACUGGACUGGACUGGACU 3′ (chemistry not given here) [Target]
- m^6A methylation in corresponding viral RNA [1]: concomitant decrease

Compound: Cc1ccc(Cl)c(Nc2ccccc2C(=O)O)c1Cl [MA, meclofenamic acid]
- effect on viral resistance to Zanamivir (IVA/PC virus [2]): potentiates viral resistance to Zanamivir

Compound: CC(=O)N[C@H]1[C@H]([C@H](O)[C@H](O)CO)OC(C(=O)O)=C[C@@H]1N=C(N)N [Zanamivir]
- IC50 (IVA/PC virus [3]): 2 nM
